Results published in PubChem BioAssay AID489032 (Sanford-Burnham Center for Chemical Genomics, 2010).
Calls of active or inactive are those of the source. How the calls were made is not given here.

System: UPR adaptive arm reporter cells, luciferase luminescence
Test: activators of adaptive UPR signalling, dose response, cell-based, luciferase luminescence (AID 489032)

| SMILES | EC50 |
| --- | --- |
| CCOC(=O)c1nnc(-c2ccccc2)nc1Oc1ccc(Cl)cc1 | > 80 µM (inactive) |
| CC1CCN(Cc2c(C(=O)N/N=C/c3ccc(C(C)(C)C)cc3)nnn2-c2nonc2N)CC1 | > 80 µM (inactive) |
| Cc1ccc(N2CCN(c3ccc(NCc4nc5ccccc5n4C)cc3)CC2)cc1 | > 80 µM (inactive) |
| COc1ccc(Cn2c(SCc3cc(C)ccc3C)nc3cc(OC)c(OC)cc3c2=N)cc1 | > 80 µM (inactive) |
| COc1ccccc1Nc1nnc(SCC(=O)NC(=O)Nc2ccc3c(c2)OCCO3)s1 | > 80 µM (inactive) |
| CCc1nc(C)cn1S(=O)(=O)c1cc([N+](=O)[O-])ccc1Cl | > 80 µM (inactive) |
| CCCNC(=O)/C(C#N)=C1\N=C(NC(=O)c2cccs2)c2ccccc21 | > 80 µM (inactive) |
| COc1ccc(C(CCNCc2ccccc2)c2ccc(F)cc2)cc1 (configuration not stated) | 10.7 µM |
| c1ccc(Oc2c3ccccc3nc3ccccc23)cc1 | > 80 µM (inactive) |
| Cc1ccccc1OCc1nc(-c2ccc(NC(=O)c3ccc4c(c3)OCO4)cc2)no1 | > 80 µM (inactive) |
| COc1ccc(OC)c(NC(=O)c2oc3ccccc3c2NC(=O)C2CC2)c1 | > 80 µM (inactive) |
| Cc1ccc2c(c1)C(=O)C(=O)N2Cc1ccc(Cl)cc1 | 57.2 µM (inactive) |
| O=C(NCCc1ccc(O)c(O)c1)C1COc2ccccc2O1 (configuration not stated) | 66.1 µM (inactive) |
| O=C(NCc1ccccc1Cl)c1cccc2c1C(=O)c1ccc(-c3ccc(OC(F)(F)F)cc3)cc1S2(=O)=O | > 80 µM (inactive) |
| O=C(N/N=C/c1ccccc1Cl)c1[nH]c2ccc(Br)cc2c1-c1ccccc1 | 32.9 µM (inactive) |
| Oc1cccc(-c2nc3c4c(ncn3n2)-c2ccccc2CC42CCCC2)c1 | > 80 µM (inactive) |
| COc1cc(/C=N/Nc2nc(Nc3ccc(C)cc3)nc(-n3nc(C)cc3C)n2)cc(OC)c1OC | 19.7 µM |
| CCCn1c(SCc2nc3sc(C)c(C)c3c(=O)[nH]2)nc2ccccc2c1=O | 72 µM (inactive) |
| O=C(/C=C\c1cn(-c2ccccc2)nc1-c1ccccc1)Nc1nccs1 | > 80 µM (inactive) |
| Oc1cc(-c2cccnc2)cc2cccnc12 | > 80 µM (inactive) |
| Cc1ccc(-c2ccnc(-c3ccc(O)cc3)n2)cc1 | 63.8 µM (inactive) |
| Cc1ccc(NC(=O)CSc2nc3ccccc3c3nc4ccccc4n23)cc1 | 7.77 µM |
| CCCCCCCC(=O)Nc1ccc(C(=O)N/N=C/c2cccc([N+](=O)[O-])c2)cc1 | 18.3 µM |

| SMILES | EC50 |
| --- | --- |
| Cc1ccc2nc(Nc3nc(-c4ccccc4)cc(=O)[nH]3)nc(C)c2c1 | 19.3 µM |
| O=C(Nc1ccc(Br)cc1)c1cc(-c2ccncc2)nc2ccccc12 | 11.1 µM |
| CC(NCC(O)COCCC12CC3CC(CC(C3)C1)C2)c1ccccc1 (configuration not stated) | > 80 µM (inactive) |
| C#CCn1c(=NC(=O)c2ccc(Cl)s2)sc2cccc(OC)c21 | > 80 µM (inactive) |
| COc1ccc(Cn2c(SCc3ccccc3C)nc3cc(OC)c(OC)cc3c2=N)cc1 | 15.5 µM |
| Cc1ccc(C(C(=O)NCc2ccco2)N(C(=O)CNC(=O)c2cccs2)c2c(C)cc(C)cc2C)cc1 (configuration not stated) | > 80 µM (inactive) |
| Cc1ccc2nc(Nc3nc(C)cc(-c4ccccc4)n3)[nH]c(=O)c2c1 | > 80 µM (inactive) |
| COc1ccc2oc(-c3ccc(C)c(NC(=O)c4ccc(N5CCOCC5)c([N+](=O)[O-])c4)c3)nc2c1 | > 80 µM (inactive) |
| O=C(/C=C/c1ccco1)NC(=S)Nc1ccc(O)c(-c2nc3ccccc3s2)c1 | 10.4 µM |
| Cn1nc(C(F)(F)F)c(/C=N/OC(=O)c2ccccc2Cl)c1SCc1ccccc1Cl | 22.2 µM (inactive) |
| CCOc1ccc(C(=O)Nc2ccc(NC(=O)c3ccco3)c(Cl)c2)cc1Cl | > 80 µM (inactive) |
| Cc1ccc(Cn2c(SCC(=O)Nc3cc(C)on3)nc3ccccc3c2=O)cc1 | > 80 µM (inactive) |
| Cc1cc(NC(=O)c2cc(-c3ccccn3)nc3ccc(Br)cc23)no1 | > 80 µM (inactive) |
| Cc1ccc(Cl)cc1N1CCN(Cc2nc3c(c(=O)[nH]c(=O)n3C)n2CCc2ccccc2)CC1 | > 80 µM (inactive) |
| CCOC(=O)c1cc(NC(=O)c2ccc(Cl)cc2)c(=O)n2c1oc1ccc(Cl)cc12 | > 80 µM (inactive) |
| CN1C(=O)/C(=C/c2ccc(C(=O)NC3CCCC3)cc2)Oc2ccccc21 | > 80 µM (inactive) |
| Cc1ccc2oc(C(Cl)(Cl)Cl)cc(=O)c2c1 | 28.3 µM (inactive) |
| Cc1c(O)cc2c(c1O)C(=O)CC(c1ccccc1)O2 (configuration not stated) | 10.8 µM |
| Cc1nc(SCC(=O)Nc2ccc(F)cc2)c(C#N)c(C)c1CC(=O)c1ccc(Br)cc1 | > 80 µM (inactive) |
| CCOC(=O)c1c(-c2ccc(C)o2)csc1NC(=O)COC(=O)c1ccc(NC(N)=O)cc1 | > 80 µM (inactive) |
| Cn1c(=O)c2c(SCC(=O)Nc3ccccc3F)nc(-c3ccccc3F)nc2n(C)c1=O | 36.1 µM (inactive) |
| CC(C)=CCCC1(C)C=Cc2c(ccc3c2[nH]c2cc(O)c(C)cc23)O1 (configuration not stated) | > 80 µM (inactive) |
| O=C(C[C@H]1C[C@H](C(=O)N2CCCCC2)[C@@]2(CCc3ccccc3)c3[nH]c4ccc(Cl)cc4c3CCN2C1=O)NCCC1=CCCCC1 | > 80 µM (inactive) |

| SMILES | EC50 |
| --- | --- |
| CC(C)=CCCC1(C)C=Cc2c(c(C)cc3c2[nH]c2cc(O)ccc23)O1 (configuration not stated) | > 80 µM (inactive) |
| COc1ccc(/C=N/Nc2cc(C)nc3ccc(Br)cc23)cc1 | > 80 µM (inactive) |
| O=C(Nc1ccc(SC(F)F)cc1)c1cc(-c2ccncc2)nc2ccccc12 | 34.7 µM (inactive) |
| CCOc1ccccc1N=Cc1c(O)c2ccccc2oc1=O | 11.6 µM |
| Cc1cc(NC(=O)c2cc(-c3ccncc3)nc3ccccc23)ccc1Br | 27.8 µM (inactive) |
| Clc1ccc2c(c1)C(N1CCNCC1)Cc1ccccc1S2 (configuration not stated) | > 80 µM (inactive) |
| CCOC(=O)c1c(NC(=O)CNC2CCCc3ccccc32)sc(C(N)=O)c1C (configuration not stated) | > 80 µM (inactive) |
| CCOc1cc(CNC(C)(C)CO)cc(Br)c1OCc1ccc(Cl)cc1Cl | 20 µM |
| CCN(CC)c1ccc(N=Cc2c(O)n(Cc3ccccc3)c(=O)[nH]c2=O)cc1 | 62.5 µM (inactive) |
| Oc1ccc(/C=N/Nc2nc(N3CCCC3)nc(N3CCCC3)n2)cc1O | > 80 µM (inactive) |
| CCCCCCCCCCOC(=O)Cn1c(COc2ccccc2OC)[n+](C)c2ccccc21 | 18.1 µM |
| Cc1ccc(C(=O)Nc2cc(S(=O)(=O)N3CCOCC3)ccc2N2CCCC2)cc1 | 63.2 µM (inactive) |
| CC1CCN(Cc2c(C(=O)N/N=C/c3ccc(C(F)(F)F)cc3)nnn2-c2nonc2N)CC1 | > 80 µM (inactive) |
| COc1cccc(/C=N/Nc2ccc([N+](=O)[O-])cn2)c1O | > 80 µM (inactive) |
| CC(C)C(=O)N(c1cc2sc(=O)oc2c2ccccc12)S(=O)(=O)c1cccs1 | > 80 µM (inactive) |
| CCCCCCCCCCOC(=O)Cn1c(COc2ccc(C)cc2)[n+](C)c2ccccc21 | > 80 µM (inactive) |
| O=C(NC(=S)Nc1cc(-c2nc3ccccc3[nH]2)ccc1Cl)c1ccc2c(c1)OCO2 | 10.1 µM |
| Cc1cc(C)c2sc(N(CCCN(C)C)C(=O)c3ccc(S(=O)(=O)N4CCCc5ccccc54)cc3)nc2c1 | > 80 µM (inactive) |
| CCCCN(CC)S(=O)(=O)c1ccc(C(=O)N(CCCN(C)C)c2nc3cc(C)cc(C)c3s2)cc1 | > 80 µM (inactive) |
| Cc1ccc2nc(/C(C#N)=C/c3ccc(O)c(O)c3)[nH]c2c1 | > 80 µM (inactive) |
| O=C1NC(=O)N(Cc2ccccc2)C(=O)/C1=C\c1ccco1 | > 80 µM (inactive) |
| CCOc1ccc(S(=O)(=O)Nc2cccc(C(=O)NCC3(N4CCCCC4)CCCCC3)c2)cc1 | 15.3 µM |
| CN1Cc2c(N3CCOCC3)nc3sc(C(=O)c4ccc(Br)cc4)c(N)c3c2CC1(C)C | > 80 µM (inactive) |

| SMILES | EC50 |
| --- | --- |
| CCC/C(=N/Nc1ccc(Cl)cc1)c1cnnc(-c2ccccc2)n1 | > 80 µM (inactive) |
| O=C(NC1CCCCC1)c1cccc2c1C(=O)c1ccc(-c3ccc(OC(F)(F)F)cc3)cc1S2(=O)=O | > 80 µM (inactive) |
| CCOC(=O)c1c(NC(=O)c2cc(C)on2)c2cc([N+](=O)[O-])ccc2n1C | > 80 µM (inactive) |
| FC(F)(F)c1nnc2c(Sc3ccc(Cl)cc3)nc3ccccc3n12 | > 80 µM (inactive) |
| CN(C)CCOc1ccc(-c2c(-c3ccccc3)sc3ccccc23)cc1 | > 80 µM (inactive) |
| Cc1ccc(O)c(NC(=S)NC(=O)Cc2ccc(Cl)cc2)c1 | 27.1 µM (inactive) |
| COc1ccc2[nH]c3nc(SCc4nnc(-c5ccc(C)cc5)o4)nnc3c2c1 | 27.8 µM (inactive) |
| COc1ccc2nc(NC(=O)c3cccc(-c4cc5ccccc5oc4=O)c3)sc2c1 | > 80 µM (inactive) |
| CCc1ccc2[nH]c3nc(SCc4nnc(-c5ccc(C)cc5)o4)nnc3c2c1 | 39.9 µM (inactive) |
| COC(=O)C1C(O)=C(C=Nc2cccc3ccccc23)C(=O)CC1(C)C (configuration not stated) | 30.1 µM (inactive) |
| Cn1ncc(N=Cc2c(O)ccc3ccccc23)c1C(=O)Nc1cccc(Cl)c1 | > 80 µM (inactive) |
| CCOc1cc(/C=C2/NC(=S)NC2=O)ccc1OCc1ccc([N+](=O)[O-])cc1 | > 80 µM (inactive) |
| CCOc1cc(/C=N/N=C(/N)c2nonc2N)cc(Br)c1OCc1ccc(Cl)cc1 | > 80 µM (inactive) |
| COc1ccc(-c2csc(NC(=S)NC(=O)/C=C/c3ccco3)n2)cc1Br | 41.9 µM (inactive) |
| C/C(CC(C)(C)C1CCCCC1)=N\NC(N)=S | > 80 µM (inactive) |
| COc1ccccc1CCNC(=O)C1CCN(c2nnc(C)c3c(C)n(-c4ccc(C)cc4)nc23)CC1 | 17.8 µM |
| O=c1cc2oc3cc(O)c(O)cc3c(-c3ccccc3[N+](=O)[O-])c-2cc1O | > 80 µM (inactive) |
| N#C/C(=C\c1ccc(OCc2ccccc2)cc1)C(=O)Nc1nc2c(s1)CCN(Cc1ccccc1)C2 | > 80 µM (inactive) |
| Cc1cc(NC(=O)CSc2nc3sc(C)c(C)c3c(=O)n2C2CCCC2)no1 | > 80 µM (inactive) |
| COc1ccc2nc(/C(C#N)=C\c3ccc(Oc4ccc([N+](=O)[O-])cn4)cc3)[nH]c2c1 | > 80 µM (inactive) |
| COc1ccc(C2c3ccc4ccccc4c3Oc3ncn(CCCN(C)C)c(=N)c32)cc1 (configuration not stated) | > 80 µM (inactive) |
| COc1cc([C@@H]2c3cc4c(cc3[C@@H](O)[C@H]3COC(=O)[C@H]23)OCO4)cc(OC)c1O[Si](C)(C)C(C)(C)C | > 80 µM (inactive) |
| NS(=O)(=O)c1ccc(N/N=C/c2cn(-c3ccccc3)nc2-c2cccs2)c([N+](=O)[O-])c1 | > 80 µM (inactive) |
